One assay has as its target MsepCSP8 (Mythimna separata, UniProt A0A1V1WC03). Nature of the assay: Fluorescence competitive binding assay with 1-NPN as fluorescent probe. The following applies: for IC50: displacement of 1-NPN; for Ki: calculated from IC50; for binding affinity to MsepCSP8 in words: discussion of Table 1, pH not stated. The procedure:
The expressed protein was obtained in soluble form in the supernatant, and purification was accomplished using a Ni affinity chromatography column (GE Healthcare, Uppsala, Sweden). Bound protein was eluted by digestion with recombinant bovine enterokinase at 26°C for 15 h to remove the His-tag. Expression and purification were verified by 15% sodium dodecyl sulfate-polyacrylamide gel electrophoresis (SDS-PAGE), and protein concentration was measured as described by [Cao et al. (2017)]. Dialysis of purified protein was carried out in 30 mM Tris-HCl buffer [Tris(hydroxymethyl)aminomethane] at pH 7.4 and pH 5.0 before fluorescence binding assays, and protein was stored at -80°C until use.
Fluorescence competitive binding assays were performed to determine the binding affinity of MsepCSP8 for 56 ligands using N-phenyl-1-naphthylamine (1-NPN) as a fluorescent probe. Stock solutions of ligands were prepared in spectrophotometric-grade methanol. […] Mixtures of 1-NPN and protein were excited at 337 nm wavelength, and emission spectra were recorded from 360 to 600 nm using a fluorescence spectrophotometer (RF-5301PC Shimadzu, Kyoto, Japan). Binding of selected ligands with MsepCSP8 (1:1 protein:ligand stoichiometry) was evaluated using 1-NPN as a fluorescent probe, with the final concentration of the product ranging from 0 to 20 μM. […] Three independent measurements were made for all experiments. The binding affinity (Ki) of MsepCSP8 for all tested ligands was calculated based on IC50 values as follows:
Ki=IC50/(1 + [1−NPN]/K1–NPN)
where [1-NPN] is the free concentration of 1-NPN, and K1-NPN is the dissociation constant of the complex of MsepCSP8 and 1-NPN.

The test system of assay [1] is Mythimna separata. Nature of the assay: Y-tube olfactometer bioassay (before RNAi). It is filed as in vivo. The following applies: for behavioral response in words: male and female moths; for behavioral response (attraction) of females: 3-day-old female moths; for behavioral response (attraction) of females / behavioral response (attraction) of males: 10 μl volatile vs liquid paraffin; for behavioral response (attraction) of males: 3-day-old male moths. The source says: Mythimna separata behavioral responses were examined by olfactometer bioassays ([Cao et al., 2015]) performed in a glass Y-tube (base = 4.0 cm diameter by 25 cm length, arms = 3.0 cm diameter by 26 cm length) using 10 different volatile compounds (Sigma-Aldrich).
Air entering the tube was passed through activated charcoal for filtration and humidified using deionised water. Filtered air was split between two chambers; one chamber containing liquid paraffin (used as control) and the other containing the test volatile. Each chamber was connected to one arm of the Y-tube. Airflow was kept constant at 6.0 l min^-1 throughout the experiment using an inline flow meter (Gilmont Instr., Barnant Co., Barrington, IL, United States). Orange light was used for this experiment. The whole experiment was conducted in a dark room, and the relative humidity and temperature were maintained at 70 ± 5% and 25 ± 1°C, respectively. A 10 μl of volatile compound was applied to 10 mm × 10 mm filter papers (Whatman No. 1) that was placed in the chamber connected to one arm of the Y-tube. A separate Y-tube was used for male and female moths.
To perform bioassays, a 3-day-old moth, either male or female, was released in the base of the Y-tube. Each insect was given 10 min to respond to the treatment, and the number of moths showing attraction, repulsion or no response was counted. Approximately 30 min before onset of the trial, male and female adults were placed into separate glass tubes (50 ml) and covered with a cotton plug to avoid exposure to tested volatiles. In total, 60 adults (30 male and 30 female) were tested per volatile compound, and χ^2 tests were applied to evaluate the number of M. separata individuals attracted to or repelled by volatiles.

In assay [2] the test system is Mythimna separata. Nature of the assay: Y-tube olfactometer bioassay after dsMsepCSP8 injection. The following applies: males and females, 3 days post-eclosion. It is filed as in vivo. The method, then:
The dsRNA (500 nl of 10 ng nl^-1) was injected into 3rd and 4th abdominal segment of 7-day old pupae using a microinjector (World Precision Instruments Inc., Sarasota, FL, United States) under a microscope. After injection, pupae were kept in petri dishes until eclosion at 25 ± 1°C and 70 ± 5% relative humidity. Three treatments were set up for RNAi consisting of non-injected (controls), dsGFP-injected and dsRNA-injected (dsMsepCSP8) groups. After eclosion, adults from each treatment were kept in separate containers. Three individuals of each sex from all three treatments were taken at 1, 2, 3, 4, and 5 days post-eclosion for RNAi analysis. RT-qPCR was performed using the method described above.
Y-tube bioassays were performed both before and after RNAi application to confirm the MsepCSP8 gene silencing effect. Three treatments consisting of dsGFP-injected, dsRNA-injected (dsMsepCSP8), and controls were tested on both 3-day old male and female moths.

The values below come from publication PMC6052345, “Functional Analysis of the Chemosensory Protein MsepCSP8 From the Oriental Armyworm Mythimna separata” (Frontiers in Physiology, 2018).

Where two headings read alike, the source gives them in different places.

MsepCSP8, sequence (A0A1V1WC03 entry or part of it): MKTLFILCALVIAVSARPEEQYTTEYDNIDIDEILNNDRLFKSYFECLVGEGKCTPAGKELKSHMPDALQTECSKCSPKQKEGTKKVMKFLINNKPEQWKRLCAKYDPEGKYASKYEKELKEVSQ

Broadly, the IC50 is the concentration needed to halve the response being measured. Usually Ki stands for a measure of affinity in units of concentration, obtained from inhibition or displacement. `CC1=CCC(O)(C(C)C)CC1` (single isomer, unassigned; (-)) [(–)-Terpinen-4-ol]: the half-inhibitory concentration (IC50) on MsepCSP8 (IC50, pH 5.0) is 9.46 µM; on MsepCSP8 (IC50, pH 7.4), 13.9 µM. Moreover, the Ki on MsepCSP8 (Ki, pH 5.0) was 7.06 µM; at MsepCSP8 (Ki, pH 7.4) it was 9.74 µM. For the same compound, at MsepCSP8, the “binding affinity to MsepCSP8 in words” value is given as “high binding affinities”. Further, the “behavioral response in words” value with Mythimna separata [1] was “repelled”.

For `C=CC(O)CC` (stereo not shown) [1-Penten-3-ol], the IC50 on MsepCSP8 (IC50, pH 5.0) stood at 22.2 µM; at MsepCSP8 (IC50, pH 7.4), 9.27 µM. Besides, the inhibition constant Ki is 16.6 µM on MsepCSP8 (Ki, pH 5.0) and 6.5 µM on MsepCSP8 (Ki, pH 7.4). Besides, on MsepCSP8, the “binding affinity to MsepCSP8 in words” value was “bound strongly”. Moreover, in the assay with Mythimna separata [1], the “behavioral response in words” value was “distinct preference”.

As to `CCCCCCCCCCCC(C)=O` [2-Tridecanone], the half-inhibitory concentration (IC50) turned out to be 7.75 µM on MsepCSP8 (IC50, pH 5.0) and 9.07 µM at MsepCSP8 (IC50, pH 7.4). Also, the Ki is 5.78 µM on MsepCSP8 (Ki, pH 5.0) and 6.37 µM on MsepCSP8 (Ki, pH 7.4). The “binding affinity to MsepCSP8 in words” value on MsepCSP8 was “high affinity”. The “behavioral response in words” value in the assay on Mythimna separata [1] is “non-significant attraction”.

With `OC1CCCCC1` [Cyclohexanol], in the assay on Mythimna separata [1], the “behavioral response in words” value is given as “distinct preference”.

With `CCCCCC=O` [Hexanal], in the assay on Mythimna separata [1], the “behavioral response (attraction) of females” value was 73.33% and the “behavioral response (attraction) of males” value worked out at 70%. For the same compound, in the assay with Mythimna separata [2], the “behavioral responses of adults after dsMsepCSP8 injection” value is on record as “not significantly affect”.

`CCCCCCCC=O` [Octanal]: the IC50 was determined as 13.7 µM at MsepCSP8 (IC50, pH 5.0) and 9.87 µM at MsepCSP8 (IC50, pH 7.4). The inhibitory constant (Ki) at MsepCSP8 (Ki, pH 5.0) is 10.2 µM; on MsepCSP8 (Ki, pH 7.4), 6.93 µM. For the same compound, the “binding affinity to MsepCSP8 in words” value at MsepCSP8 is “high affinities”. Also, the “behavioral response in words” value in the assay with Mythimna separata [1] is given as “non-significant response”.

In the case of `CC1=CCC(=C(C)C)CC1` [Terpinolene], the half-maximal inhibitory concentration (IC50) was 27 µM on MsepCSP8 (IC50, pH 5.0) and 8.82 µM at MsepCSP8 (IC50, pH 7.4). Moreover, the Ki at MsepCSP8 (Ki, pH 5.0) is 20.1 µM; at MsepCSP8 (Ki, pH 7.4) it was 6.19 µM. The “binding affinity to MsepCSP8 in words” value at MsepCSP8 is “high binding affinities”. In the assay on Mythimna separata [1], the “behavioral response (attraction) of females” value worked out at 80%. For the same compound, the “behavioral response (attraction) of males” value in the assay with Mythimna separata [1] is 90%. For the same compound, in the assay with Mythimna separata [2], the “behavioral responses of adults after dsMsepCSP8 injection” value is on record as “not significantly affect”.

For the compound `CCC/C=C/C=O` [Trans-2-hexenal], the half-maximal inhibitory concentration (IC50) at MsepCSP8 (IC50, pH 5.0) was 8.85 µM; on MsepCSP8 (IC50, pH 7.4), 12.5 µM. In addition, the Ki on MsepCSP8 (Ki, pH 5.0) was 6.6 µM; at MsepCSP8 (Ki, pH 7.4) it was 8.8 µM. Besides, the “binding affinity to MsepCSP8 in words” value on MsepCSP8 was “high affinities”. In addition, the “behavioral response in words” value with Mythimna separata [1] is recorded as “non-significant response”.

In the case of `CC1=CC=C(C(C)C)CC1` [α-Terpinene], in the assay on Mythimna separata [1], the “behavioral response (attraction) of females” value was found to be 70% and the “behavioral response (attraction) of males” value was found to be 66%.

Consider `CC(=O)/C=C/C1=C(C)CCCC1(C)C` [β-Lonone], for which the IC50 came out at 22.8 µM on MsepCSP8 (IC50, pH 5.0) and 10.3 µM at MsepCSP8 (IC50, pH 7.4). For the same compound, the inhibition constant Ki on MsepCSP8 (Ki, pH 5.0) is 17 µM; at MsepCSP8 (Ki, pH 7.4), 7.22 µM. The “binding affinity to MsepCSP8 in words” value at MsepCSP8 is “high affinity”.

Regarding (+)-Fenchone, the Ki at MsepCSP8 (pH 5.0, read-out: Ki) is 14.9 µM; on MsepCSP8 (pH 7.4, read-out: Ki) it was 20.8 µM. In addition, the IC50 on MsepCSP8 (pH 5.0, read-out: IC50) is 20 µM; at MsepCSP8 (pH 7.4, read-out: IC50), 29.7 µM.

As for (–)-Isolongifolene, the Ki on MsepCSP8 (pH 5.0, read-out: Ki) is 46 µM; at MsepCSP8 (pH 7.4, read-out: Ki), 17.3 µM. The 50% inhibitory concentration (IC50) on MsepCSP8 (pH 5.0, read-out: IC50) is 61.6 µM; on MsepCSP8 (pH 7.4, read-out: IC50), 24.6 µM.

On to (–)-Limonene, for which the Ki at MsepCSP8 (pH 5.0, read-out: Ki) is 11.2 µM; on MsepCSP8 (pH 7.4, read-out: Ki), 28.4 µM. Further, the IC50 on MsepCSP8 (pH 5.0, read-out: IC50) was 15.1 µM; at MsepCSP8 (pH 7.4, read-out: IC50), 40.4 µM.

Take Farnesene: the half-inhibitory concentration (IC50) at MsepCSP8 (pH 5.0, read-out: IC50) turned out to be 20.2 µM; at MsepCSP8 (pH 7.4, read-out: IC50), 18.6 µM. The Ki at MsepCSP8 (pH 7.4, read-out: Ki) was 13.1 µM.
